# pIC50: −log10 of the molar value. Marks after values point to notes of the source that are not given here.
# Experiments:
# [1] = Metabolic stability in liver microsomes; type: in vitro ADME; conditions: Mouse
# [2] = tested on: NASH mouse model; experiment: CCL4- and HFD-induced NASH mouse model; type: in vivo, C57BL/6J mice; conditions: CS17919 20 mg/kg
# Description: 41 C57BL/6J mice, male, 6–8 weeks of age, were purchased from Chengdu Dossy Experimental Animal Co. (Chengdu, China), 9 of which were assigned in the control group and fed a chow diet. The other 32 mice were fed a HFD (D12429, Research diet, USA). After 8 weeks of feeding, these mice with HFD were subcutaneously injected with CCL4 (0.1 mL/kg) twice a week. These mice were then randomly subdivided into 4 groups according to serum ALT and AST at week 12: Model (n = 8), CS17919 (n = 8), CS27109 (n = 8), and Combination (n = 8). Both the control and model groups were given the solvent mentioned above, administered orally twice a day, while CS17919 was administered twice a day by gavage at a dose of 20 mg/kg and CS27109 was administered twice a day by gavage at a dose of 10 mg/kg for 4 weeks. The body weight of each mouse was measured every 3 days during the drug intervention. All animals were fasted overnight after the last drug administration and blood was collected to isolate serum for biochemical tests including AST, ALT, TG, TC, HDL‐c, and LDL‐c. The liver of each mouse was removed, the right lobe of which was fixed in 10% formalin solution for pathological study.
# H&E staining was applied to determine scores for liver steatosis, ballooning and inflammation in the NASH model. Thin 4 μm paraffin sections of each sample were used to assess liver histology, following a standard protocol. Paraffin sections were deparaffinized and placed in Hematoxylin staining solution for 3–8 min before using tap water to elute excess Hematoxylin. Sections were stained in Eosin stain for about 1–3 min and rinsed with tap water. Finally, the slices were dehydrated and sealed. Score ranges were 0–3 for liver steatosis, 0–2 for ballooning and 0–12 for inflammation (which included scores of 0–3 for portal inflammation, 0–3 for lobular inflammation, 0–3 for piecemeal necrosis, and 0–3 for bridging necrosis).
# Sirius Red staining was applied to determine liver fibrosis in the NASH model. Thin 4 μm paraffin sections of each sample were used in this study followed the standard procedure. Sections were first stained with Hematoxylin for 5–10 min, then washed and stained with Sirius Red stain about 15–30 min. Finally, the sections were rinsed and sealed. Image‐Pro Plus 6.0 was used for analyzing the area of liver fibrosis and the percentage of the fibrosis area in each section was calculated.
# [3] = tested on: NASH mouse model; experiment: CCL4- and HFD-induced NASH mouse model; type: in vivo, C57BL/6J mice; conditions: data not shown; model group 5/9
# [4] = tested on: MRC‐5; experiment: MTS cytotoxicity assay, MRC-5; type: cell-based, human; conditions: 72 h
# Description: (§1) Human embryonic kidney cells (HEK‐293A), human hepatocellular carcinoma cells (HUH7), human embryonic liver diploid cells (CCC‐HEL‐1) and human embryonic lung cells (MRC‐5) were selected for the cytotoxicity study of both drugs, using the MTS assay protocol. Cells were cultured at 37°C with 5% CO2 using an appropriate medium. […] After 72 h of incubation, 30 μL of MTS solution was added to each well, and the cells were then incubated for 2–4 h in the dark. The absorbance value of each well at 490 nm was measured using an enzymatic plate reader and the IC50 for each drug and each cell line was calculated. Cell viability and cytoxicity experiments were repeated three times.
# [5] = Metabolic stability in liver microsomes; type: in vitro ADME; conditions: Human
# [6] = target: CYP 2C9 (Homo sapiens, UniProt P11712); experiment: CYP inhibition in vitro; type: in vitro ADME
# [7] = tested on: HEK‐293A; experiment: MTS cytotoxicity assay, HEK-293A; type: cell-based, human; conditions: 72 h
# Description: Human embryonic kidney cells (HEK‐293A), human hepatocellular carcinoma cells (HUH7), human embryonic liver diploid cells (CCC‐HEL‐1) and human embryonic lung cells (MRC‐5) were selected for the cytotoxicity study of both drugs, using the MTS assay protocol. Cells were cultured at 37°C with 5% CO2 using an appropriate medium. For the assay, the cells were evenly distributed at 1E4 cells/well in 96‐well plates, and then CS17919 or GS‐4997 was added to the plates in a dose‐dependent manner (3‐fold dilution from 100 μmol/L). After 72 h of incubation, 30 μL of MTS solution was added to each well, and the cells were then incubated for 2–4 h in the dark. The absorbance value of each well at 490 nm was measured using an enzymatic plate reader and the IC50 for each drug and each cell line was calculated. Cell viability and cytoxicity experiments were repeated three times.
# [8] = tested on: CCC‐HEL‐1; experiment: MTS cytotoxicity assay, CCC-HEL-1; type: cell-based, human; conditions: 72 h
# Description: as §1
# [9] = target: CYP 2C19 (Homo sapiens, UniProt P33261); experiment: CYP inhibition in vitro; type: in vitro ADME
# [10] = target: CYP 1A2 (Homo sapiens, UniProt P05177)
# [11] = target: CYP 2D6 (Homo sapiens, UniProt P10635); experiment: CYP inhibition in vitro; type: in vitro ADME
# [12] = Tissue distribution in mice, oral; type: in vivo, C57BL/6J mice; conditions: 20 mg/kg gavage
# Description: Male C57BL/6J mice at 6–8 weeks (Beijing Huafukang Biotechnology Co., Ltd) were also selected for tissue distribution studies. Mice were gavage‐administered at 20 mg/kg and anesthetized at 1, 2, 4, and 8 h after administration for tissue collection, including whole blood, heart, liver, kidney, and brain. These organs were homogenized using a tissue homogenizer and analyzed together with the plasma according to the standard LC/MS procedure.
# [13] = target: CYP 2C8 (Homo sapiens, UniProt P10632); experiment: CYP inhibition in vitro; type: in vitro ADME
# [14] = target: CYP3A4 (Homo sapiens, UniProt P08684)
# [15] = target: human ASK1 kinase (Homo sapiens, UniProt Q99683); experiment: ASK1 kinase inhibition, HTRF assay; conditions: read-out: IC50, inhibition of ASK1, full-length recombinant human ASK1
# Description: Enzymatic activity analysis was repeated three times. IC50 results were obtained using Prism 8.0 (GraphPad Prism Software).
# [16] = Metabolic stability in liver microsomes; type: in vitro ADME; conditions: Rat
# [17] = 4 weeks, CS27109 10 mg/kg twice a day
# [18] = serum after 4 weeks, CS27109 10 mg/kg, gavage twice a day, mean ± SD
# CYP 2C8, sequence (P10632 whole entry): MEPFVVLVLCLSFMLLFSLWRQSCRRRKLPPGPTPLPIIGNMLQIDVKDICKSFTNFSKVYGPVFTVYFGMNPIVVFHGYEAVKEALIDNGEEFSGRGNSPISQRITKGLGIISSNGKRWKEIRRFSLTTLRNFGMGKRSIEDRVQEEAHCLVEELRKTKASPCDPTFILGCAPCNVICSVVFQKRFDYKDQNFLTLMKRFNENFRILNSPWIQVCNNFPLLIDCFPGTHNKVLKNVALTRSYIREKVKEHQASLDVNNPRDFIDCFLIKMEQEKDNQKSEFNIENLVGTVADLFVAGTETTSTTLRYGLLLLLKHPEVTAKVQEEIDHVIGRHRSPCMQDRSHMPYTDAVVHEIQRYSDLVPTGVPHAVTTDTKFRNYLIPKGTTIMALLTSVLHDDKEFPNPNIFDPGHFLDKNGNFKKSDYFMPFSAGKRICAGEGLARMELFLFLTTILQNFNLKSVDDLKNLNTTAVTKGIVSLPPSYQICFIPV
# human ASK1 kinase, sequence (Q99683 whole entry): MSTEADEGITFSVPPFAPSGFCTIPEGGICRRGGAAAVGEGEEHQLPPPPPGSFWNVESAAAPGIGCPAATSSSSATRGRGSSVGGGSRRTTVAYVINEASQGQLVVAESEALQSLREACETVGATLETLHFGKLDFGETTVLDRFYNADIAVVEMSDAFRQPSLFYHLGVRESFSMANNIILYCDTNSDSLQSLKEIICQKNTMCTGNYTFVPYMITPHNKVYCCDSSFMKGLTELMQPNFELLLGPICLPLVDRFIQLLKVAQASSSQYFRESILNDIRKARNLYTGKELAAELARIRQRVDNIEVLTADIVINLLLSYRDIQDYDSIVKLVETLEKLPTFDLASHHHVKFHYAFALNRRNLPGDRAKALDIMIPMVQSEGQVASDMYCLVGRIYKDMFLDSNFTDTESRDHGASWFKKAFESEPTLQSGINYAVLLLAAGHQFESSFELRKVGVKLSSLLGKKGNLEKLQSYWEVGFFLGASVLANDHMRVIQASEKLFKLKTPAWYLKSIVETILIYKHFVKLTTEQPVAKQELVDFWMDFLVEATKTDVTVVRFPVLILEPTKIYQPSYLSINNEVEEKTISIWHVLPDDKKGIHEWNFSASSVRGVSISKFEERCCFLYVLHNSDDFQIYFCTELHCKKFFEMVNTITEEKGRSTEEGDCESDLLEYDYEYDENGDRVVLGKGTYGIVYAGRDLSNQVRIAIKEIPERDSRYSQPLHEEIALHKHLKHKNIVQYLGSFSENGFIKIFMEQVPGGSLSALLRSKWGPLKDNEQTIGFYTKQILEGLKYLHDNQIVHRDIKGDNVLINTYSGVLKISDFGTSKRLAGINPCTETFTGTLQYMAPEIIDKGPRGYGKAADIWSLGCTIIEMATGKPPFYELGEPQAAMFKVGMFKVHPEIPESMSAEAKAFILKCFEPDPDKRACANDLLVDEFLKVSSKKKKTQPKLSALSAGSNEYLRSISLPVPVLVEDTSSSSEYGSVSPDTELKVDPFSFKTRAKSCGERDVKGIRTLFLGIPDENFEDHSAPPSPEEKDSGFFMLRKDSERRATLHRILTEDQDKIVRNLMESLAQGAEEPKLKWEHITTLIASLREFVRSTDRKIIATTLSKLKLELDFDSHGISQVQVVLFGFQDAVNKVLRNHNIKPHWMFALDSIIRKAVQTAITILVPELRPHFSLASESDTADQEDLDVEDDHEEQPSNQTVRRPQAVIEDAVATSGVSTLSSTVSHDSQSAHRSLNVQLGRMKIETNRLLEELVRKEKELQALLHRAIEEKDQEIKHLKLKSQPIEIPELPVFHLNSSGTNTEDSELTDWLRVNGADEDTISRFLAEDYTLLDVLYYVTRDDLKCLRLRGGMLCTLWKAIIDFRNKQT
# CYP 2C19, sequence (P33261 whole entry): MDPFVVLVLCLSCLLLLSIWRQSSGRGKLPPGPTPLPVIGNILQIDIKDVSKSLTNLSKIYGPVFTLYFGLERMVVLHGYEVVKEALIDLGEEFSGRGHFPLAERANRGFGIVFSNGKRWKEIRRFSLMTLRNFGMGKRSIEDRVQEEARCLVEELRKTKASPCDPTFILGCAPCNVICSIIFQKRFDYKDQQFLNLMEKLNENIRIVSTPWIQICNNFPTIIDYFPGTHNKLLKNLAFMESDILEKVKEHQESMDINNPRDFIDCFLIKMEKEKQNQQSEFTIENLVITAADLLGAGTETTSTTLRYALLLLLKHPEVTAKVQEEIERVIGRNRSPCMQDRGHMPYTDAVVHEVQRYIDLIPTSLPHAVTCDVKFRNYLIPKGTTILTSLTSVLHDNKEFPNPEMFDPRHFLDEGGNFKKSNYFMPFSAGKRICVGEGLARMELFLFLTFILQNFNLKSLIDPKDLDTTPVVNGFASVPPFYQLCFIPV
# CYP3A4, sequence (P08684 whole entry): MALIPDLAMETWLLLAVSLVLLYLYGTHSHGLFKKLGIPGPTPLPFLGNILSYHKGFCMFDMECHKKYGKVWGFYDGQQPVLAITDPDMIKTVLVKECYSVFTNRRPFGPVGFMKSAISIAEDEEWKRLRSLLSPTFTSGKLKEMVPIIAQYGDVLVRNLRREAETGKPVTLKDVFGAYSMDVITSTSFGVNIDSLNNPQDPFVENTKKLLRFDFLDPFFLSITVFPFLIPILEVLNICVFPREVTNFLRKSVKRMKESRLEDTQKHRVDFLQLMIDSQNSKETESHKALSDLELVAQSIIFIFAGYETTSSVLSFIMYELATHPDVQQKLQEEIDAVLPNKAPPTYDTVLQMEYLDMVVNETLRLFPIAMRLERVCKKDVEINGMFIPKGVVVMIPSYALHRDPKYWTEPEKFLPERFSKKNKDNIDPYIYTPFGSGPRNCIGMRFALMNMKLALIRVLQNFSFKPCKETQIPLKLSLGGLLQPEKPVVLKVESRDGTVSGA
# CYP 2D6, sequence (P10635 whole entry): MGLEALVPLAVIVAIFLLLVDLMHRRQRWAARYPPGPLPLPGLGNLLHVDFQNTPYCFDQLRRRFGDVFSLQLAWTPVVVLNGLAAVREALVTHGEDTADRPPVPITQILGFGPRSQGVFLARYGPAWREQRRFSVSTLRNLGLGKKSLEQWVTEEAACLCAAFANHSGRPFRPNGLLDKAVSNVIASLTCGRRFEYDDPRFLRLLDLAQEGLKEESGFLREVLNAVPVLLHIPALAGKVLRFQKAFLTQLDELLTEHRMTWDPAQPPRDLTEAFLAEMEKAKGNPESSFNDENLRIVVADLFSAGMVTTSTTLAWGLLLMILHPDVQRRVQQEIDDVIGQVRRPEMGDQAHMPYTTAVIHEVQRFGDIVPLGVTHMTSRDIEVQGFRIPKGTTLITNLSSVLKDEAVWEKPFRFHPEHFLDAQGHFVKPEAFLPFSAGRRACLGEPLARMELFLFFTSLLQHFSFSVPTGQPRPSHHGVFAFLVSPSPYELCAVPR
# CYP 1A2, sequence (P05177 whole entry): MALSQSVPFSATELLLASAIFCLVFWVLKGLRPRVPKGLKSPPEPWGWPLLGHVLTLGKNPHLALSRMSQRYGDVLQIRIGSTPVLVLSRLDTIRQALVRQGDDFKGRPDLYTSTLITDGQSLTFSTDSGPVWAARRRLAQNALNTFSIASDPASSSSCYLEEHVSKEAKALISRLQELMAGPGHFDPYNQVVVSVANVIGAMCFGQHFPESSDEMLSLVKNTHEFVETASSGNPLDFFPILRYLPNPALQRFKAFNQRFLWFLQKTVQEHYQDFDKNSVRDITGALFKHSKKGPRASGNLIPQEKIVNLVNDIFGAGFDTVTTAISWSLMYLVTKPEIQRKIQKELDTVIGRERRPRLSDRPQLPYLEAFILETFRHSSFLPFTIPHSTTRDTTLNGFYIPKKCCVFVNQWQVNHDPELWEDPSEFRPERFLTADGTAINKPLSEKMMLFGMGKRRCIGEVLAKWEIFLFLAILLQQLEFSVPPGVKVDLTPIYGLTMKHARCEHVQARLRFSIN
# CYP 2C9, sequence (P11712 whole entry): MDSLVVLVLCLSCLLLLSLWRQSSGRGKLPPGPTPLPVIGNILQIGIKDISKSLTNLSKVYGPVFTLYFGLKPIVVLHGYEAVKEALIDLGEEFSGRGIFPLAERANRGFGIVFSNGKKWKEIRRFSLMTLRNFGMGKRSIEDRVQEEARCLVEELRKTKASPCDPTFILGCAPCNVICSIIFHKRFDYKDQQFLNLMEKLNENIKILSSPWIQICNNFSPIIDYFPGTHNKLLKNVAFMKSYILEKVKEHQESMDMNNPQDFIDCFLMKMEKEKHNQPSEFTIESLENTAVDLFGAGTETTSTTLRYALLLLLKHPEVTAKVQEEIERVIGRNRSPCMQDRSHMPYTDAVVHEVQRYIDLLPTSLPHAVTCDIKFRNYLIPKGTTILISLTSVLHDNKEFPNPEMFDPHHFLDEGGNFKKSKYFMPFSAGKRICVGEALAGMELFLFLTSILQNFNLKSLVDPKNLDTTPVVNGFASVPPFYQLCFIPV
structure (smiles),measurement,setting,value
Cc1cc(F)c(C(=O)Nc2cccc(-c3nncn3[C@H](C)C(F)(F)F)n2)cc1NC(=O)C1CC1 [CS17919],T1/2 in liver microsomes,[1],>145 min
same,Liver fibrosis area (Sirius Red staining),[2]; [17],significantly reduced
same,Liver inflammation score (H&E),[2]; [17],tended to improve
same,Liver steatosis and ballooning scores (H&E),[2]; [17],barely improved
same,ALT,[2]; [18],120.9 ± 80.3^a U/L
same,AST,[2]; [18],193.3 ± 110.1 U/L
same,HDL‐C,[2]; [18],0.604 ± 0.231 mmol/L
same,LDL‐C,[2]; [18],0.054 ± 0.028^a mmol/L
same,TC,[2]; [18],0.719 ± 0.251 mmol/L
same,TG,[2]; [18],0.223 ± 0.106 mmol/L
same,Occurrence of hepatocellular carcinoma (mice affected/group),[3],3/8
same,Cytotoxicity (cell viability),[4],barely affected cell viability
same,T1/2 in liver microsomes,[5],>145 min
same,pIC50,[6],< 5.00
same,Cytotoxicity (cell viability),[7],barely affected cell viability
same,Cytotoxicity (cell viability),[8],barely affected cell viability
same,pIC50,[9],< 5.00
same,pIC50,[10],< 5.00
same,pIC50,[11],< 5.00
same,Tissue accumulation,[12],tissue‐specific accumulation of CS17919 in the liver and kidney
same,Brain concentration,"[12]; 1 h, mean ± SD, n = 3",30.42 ± 6.82 ng/g
same,Heart concentration,"[12]; 1 h, mean ± SD, n = 3",1330.94 ± 384.66 ng/g
same,Kidney concentration,"[12]; 1 h, mean ± SD, n = 3",4353.18 ± 260.20 ng/g
same,Liver concentration,"[12]; 1 h, mean ± SD, n = 3",8933.89 ± 456.44 ng/g
same,Plasma concentration,"[12]; 1 h, mean ± SD, n = 3",3104.56 ± 474.21 ng/mL
same,Brain concentration,"[12]; 2 h, mean ± SD, n = 3",7.37 ± 1.98 ng/g
same,Heart concentration,"[12]; 2 h, mean ± SD, n = 3",918.02 ± 156.73 ng/g
same,Kidney concentration,"[12]; 2 h, mean ± SD, n = 3",2751.58 ± 252.41 ng/g
same,Liver concentration,"[12]; 2 h, mean ± SD, n = 3",5322.41 ± 114.54 ng/g
same,Plasma concentration,"[12]; 2 h, mean ± SD, n = 3",2737.71 ± 208.45 ng/mL
same,Brain concentration,"[12]; 4 h, mean ± SD, n = 3",8.28 ± 4.78 ng/g
same,Heart concentration,"[12]; 4 h, mean ± SD, n = 3",338.03 ± 97.76 ng/g
same,Kidney concentration,"[12]; 4 h, mean ± SD, n = 3",1173.69 ± 135.53 ng/g
same,Liver concentration,"[12]; 4 h, mean ± SD, n = 3",2371.88 ± 421.50 ng/g
same,Plasma concentration,"[12]; 4 h, mean ± SD, n = 3",1444.51 ± 155.53 ng/mL
same,Heart concentration,"[12]; 8 h, mean ± SD, n = 3",256.60 ± 117.57 ng/g
same,Kidney concentration,"[12]; 8 h, mean ± SD, n = 3",993.13 ± 136.67 ng/g
same,Liver concentration,"[12]; 8 h, mean ± SD, n = 3",1939.43 ± 337.32 ng/g
same,Plasma concentration,"[12]; 8 h, mean ± SD, n = 3",856.1 ± 332.34 ng/mL
same,Brain concentration,"[12]; 8 h, LLOQ 1 ng/g",LLOQ (<1) ng/g
same,pIC50,[13],< 5.00
same,pIC50,[14],< 5.00
same,pIC50,[15],7.65
same,T1/2 in liver microsomes,[16],>145 min

# From publication PMC11798738, “Targeting ASK1 by CS17919 alleviates kidney‐ and liver‐related diseases in murine models” (Animal Models and Experimental Medicine, 2024)
